ChEMBL document CHEMBL4627387, “Cucurbitane-Type Triterpenoids from the Vines of Momordica charantia and Their Anti-inflammatory Activities” (J Nat Prod, 2020)
Activity calls are given as the source filed them. The rule behind the calls is not given here.

Legend:
[1] = system: WiDr; experiment: Antiproliferative activity against human WiDr cells assessed as reduction in cell viability after 48 hrs by alamarBlue assay; type: functional, cell-based
[2] = system: HepG2; experiment: Antiproliferative activity against human HepG2 cells assessed as reduction in cell viability after 48 hrs by alamarBlue assay; type: functional, cell-based
[3] = system: MCF7; experiment: Antiproliferative activity against human MCF7 cells assessed as reduction in cell viability after 48 hrs by alamarBlue assay; type: functional, cell-based
[4] = Cytotoxicity against mouse RAW264.7 cells assessed as cell viability at 15 ug/ml after 24 hrs by alamarBlue assay relative to control; type: cell-based; conditions: read-out: Activity
[5] = system: HEp-2; experiment: Antiproliferative activity against human Hep2 cells assessed as reduction in cell viability after 48 hrs by alamarBlue assay; type: functional, cell-based
[6] = system: RAW264.7; experiment: Antiinflammatory activity in mouse RAW264.7 cells assessed as inhibition of LPS-induced NO production incubated for 12 hrs by Griess reagent based assay; type: functional
[7] = system: RAW264.7; experiment: Cytotoxicity against mouse RAW264.7 cells assessed as reduction in cell viability after 24 hrs by alamarBlue assay; type: cell-based; conditions: RAW264.7, 24 h
[8] = system: Human immunodeficiency virus 1; experiment: Antiviral activity against HIV 1 NL4-3 infected in human MT4 cells assessed as reduction in viral replication and measured on day 3 post infection by Nano-glo luciferase reporter gene assay; type: functional, organism-based

Compound | Activity [1] | Activity [2] | Activity [3] | viability at 24 h, 15 ug/ml [4] | Activity [5] | inhibition (INH) [6] | IC50 [7] | Activity [8]
C/C=C/C(=O)O[C@H]1CC[C@@H]2C(=C[C@H](O)[C@@H]3[C@@]2(C=O)CC[C@]2(C)[C@@H]([C@H](C)C/C=C/C(C)(C)O)CC[C@@]32C)C1(C)C | inactive | inactive | inactive | 94.7% | inactive | 73.3% | 19.1 µM | –
CCOC(C)(C)/C=C/C[C@@H](C)[C@H]1CC[C@@]2(C)[C@@H]3[C@@H](O)C=C4[C@@H](CC[C@H](OC(=O)CC(=O)O)C4(C)C)[C@]3(C=O)CC[C@]12C | inactive | inactive | inactive | 89.7% | inactive | 50.4% | 24 µM | –
COC(=O)CC(=O)O[C@H]1CC[C@@H]2C(=C[C@H](O)[C@@H]3[C@@]2(C=O)CC[C@]2(C)[C@@H]([C@H](C)C/C=C/C(C)(C)O)CC[C@@]32C)C1(C)C | inactive | inactive | inactive | 67.6% | inactive | 65.1% | 20.3 µM | inactive
C[C@H](C/C=C/C(C)(C)O)[C@H]1CC[C@@]2(C)[C@@H]3[C@@H](O)C=C4[C@@H](CC[C@H](OC(=O)CC(=O)O)C4(C)C)[C@]3(C=O)CC[C@]12C | inactive | inactive | inactive | 53.8% | inactive | 77% | 16 µM | –
CO[C@H]1C=C2[C@@H](CC[C@H](O)C2(C)C)[C@]2(C=O)CC[C@]3(C)[C@@H]([C@H](C)C/C=C/C(C)(C)OC)CC[C@@]3(C)[C@H]12 | inactive | inactive | inactive | 90.5% | inactive | 35% | 35.6 µM | –
CO[C@H]1C=C2[C@@H](CC[C@H](OC(=O)CC(=O)O)C2(C)C)[C@]2(C=O)CC[C@]3(C)[C@@H]([C@H](C)C/C=C/C(C)(C)O)CC[C@@]3(C)[C@H]12 | inactive | inactive | inactive | 125% | inactive | 51.2% | 24.4 µM | –
COC(=O)CC(=O)O[C@H]1CC[C@@H]2C(=C[C@H](O)[C@@H]3[C@@]2(C=O)CC[C@]2(C)[C@@H]([C@H](C)C/C=C/C(C)(C)OC)CC[C@@]32C)C1(C)C | inactive | inactive | inactive | 69% | inactive | 64.3% | 15.6 µM | inactive
CO[C@H]1O[C@]23C=C[C@@H]4[C@@]1(CC[C@]1(C)[C@@H]([C@H](C)C/C=C/C(C)(C)O)CC[C@@]41C)[C@@H]2CC[C@H](OC(=O)CC(=O)O)C3(C)C | inactive | inactive | inactive | 59.6% | inactive | 66.1% | 11.3 µM | –
CO[C@@H]1O[C@]23C=C[C@@H]4[C@@]1(CC[C@]1(C)[C@@H]([C@H](C)C/C=C/C(C)(C)O)CC[C@@]41C)[C@@H]2CC[C@H](OC(=O)CC(=O)O)C3(C)C | inactive | inactive | inactive | 113% | inactive | 42.6% | 29.1 µM | –
COC(C)(C)/C=C/C[C@@H](C)[C@H]1CC[C@@]2(C)[C@@H]3[C@@H](O)C=C4[C@@H](CC[C@H](OC(=O)CC(=O)O)C4(C)C)[C@]3(C=O)CC[C@]12C | – | – | – | – | – | – | – | inactive
CO[C@H]1C=C2[C@@H](CC[C@H](OC(=O)CC(=O)O)C2(C)C)[C@]2(C=O)CC[C@]3(C)[C@@H]([C@H](C)C/C=C/C(C)(C)OC)CC[C@@]3(C)[C@H]12 | inactive | inactive | inactive | 72.4% | inactive | 56.5% | 22.1 µM | inactive
CO[C@@H](C=C(C)C)C[C@@H](C)[C@H]1CC[C@@]2(C)[C@@H]3[C@@H](O)C=C4[C@@H](CC[C@H](OC(=O)CC(=O)O)C4(C)C)[C@]3(C=O)CC[C@]12C | inactive | inactive | inactive | 61.9% | inactive | 68.8% | 16.1 µM | inactive
O=c1c(O)c(-c2ccc(O)c(O)c2)oc2cc(O)cc(O)c12 [QUERCETIN] | – | – | – | 142% | – | 88.9% | 4.2 µM | –
